PubChem BioAssay (NCI)
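Grown in 96-well plates, cells were treated for 48 hours with each compound at five concentrations. Insufficient inhibition: endpoint recorded as highest concentration tested. TGI: concentration producing complete growth inhibition.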

Key:
Experiment in all cases: NCI tumour cell line growth inhibition, 48 h
A549 NSCLC = tested on: A549 NSCLC
ACHN renal = tested on: ACHN renal
CCRF-CEM leukemia = tested on: CCRF-CEM leukemia
DU-145 prostate = tested on: DU-145 prostate
EKVX NSCLC = tested on: EKVX NSCLC
HCC-2998 colon = tested on: HCC-2998 colon
HCT-15 colon = tested on: HCT-15 colon
HL-60(TB) leukemia = tested on: HL-60(TB) leukemia
HOP-62 NSCLC = tested on: HOP-62 NSCLC
HT29 colon = tested on: HT29 colon
IGROV1 ovarian = tested on: IGROV1 ovarian
K-562 leukemia = tested on: K-562 leukemia
KM12 colon = tested on: KM12 colon
M14 melanoma = tested on: M14 melanoma
MCF7 breast = tested on: MCF7 breast
MDA-MB-231 breast = tested on: MDA-MB-231 breast
MOLT-4 leukemia = tested on: MOLT-4 leukemia
NCI-H460 lung = tested on: NCI-H460 lung
NCI-H522 lung = tested on: NCI-H522 lung
OVCAR-3 ovarian = tested on: OVCAR-3 ovarian
OVCAR-5 ovarian = tested on: OVCAR-5 ovarian
OVCAR-8 ovarian = tested on: OVCAR-8 ovarian
PC-3 prostate = tested on: PC-3 prostate
RPMI-8226 leukemia = tested on: RPMI-8226 leukemia
SF-539 CNS = tested on: SF-539 CNS
SK-MEL-2 melanoma = tested on: SK-MEL-2 melanoma
SNB-19 CNS = tested on: SNB-19 CNS
UO-31 renal = tested on: UO-31 renal
786-0 renal = tested on: 786-0 renal
A498 renal = tested on: A498 renal
BT-549 breast = tested on: BT-549 breast
COLO 205 colon = tested on: COLO 205 colon
HCT-116 colon = tested on: HCT-116 colon
HOP-92 NSCLC = tested on: HOP-92 NSCLC
MALME-3M melanoma = tested on: MALME-3M melanoma
MDA-MB-435 = tested on: MDA-MB-435
NCI-H226 lung = tested on: NCI-H226 lung
NCI-H23 lung = tested on: NCI-H23 lung
NCI/ADR-RES ovarian = tested on: NCI/ADR-RES ovarian
OVCAR-4 ovarian = tested on: OVCAR-4 ovarian
RXF 393 renal = tested on: RXF 393 renal
SF-268 CNS = tested on: SF-268 CNS
SF-295 CNS = tested on: SF-295 CNS
SK-MEL-28 melanoma = tested on: SK-MEL-28 melanoma
SK-MEL-5 melanoma = tested on: SK-MEL-5 melanoma
SK-OV-3 ovarian = tested on: SK-OV-3 ovarian
SN12C renal = tested on: SN12C renal
SNB-75 CNS = tested on: SNB-75 CNS
SW-620 colon = tested on: SW-620 colon
TK-10 renal = tested on: TK-10 renal
U251 CNS = tested on: U251 CNS
UACC-257 melanoma = tested on: UACC-257 melanoma
UACC-62 melanoma = tested on: UACC-62 melanoma

## COc1ccc2[nH]c3c(C)c4ccnc(NCCCN(C)CCCNc5ccc([N+](=O)[O-])c6[nH]c7ccccc7c(=O)c56)c4c(C)c3c2c1
A549 NSCLC
  TGI: 0.0783 µM
ACHN renal
  TGI: 0.648 µM
CCRF-CEM leukemia
  TGI: 4.12 µM
DU-145 prostate
  TGI: 1.27 µM
EKVX NSCLC
  TGI: 0.964 µM
HCC-2998 colon
  TGI: 0.568 µM
HCT-15 colon
  TGI: 0.68 µM
HL-60(TB) leukemia
  TGI: 50 µM
HOP-62 NSCLC
  TGI: 1.06 µM
HT29 colon
  TGI: 0.107 µM
IGROV1 ovarian
  TGI: 0.755 µM
K-562 leukemia
  TGI: 4.41 µM
KM12 colon
  TGI: 1.43 µM
M14 melanoma
  TGI: 0.988 µM
MCF7 breast
  TGI: 0.0954 µM
MDA-MB-231 breast
  TGI: 1.81 µM
MOLT-4 leukemia
  TGI: 0.989 µM
NCI-H460 lung
  TGI: 0.0678 µM
NCI-H522 lung
  TGI: 0.822 µM
OVCAR-3 ovarian
  TGI: 1.2 µM
OVCAR-5 ovarian
  TGI: 1.26 µM
OVCAR-8 ovarian
  TGI: 1.11 µM
PC-3 prostate
  TGI: 1.21 µM
RPMI-8226 leukemia
  TGI: 50 µM
SF-539 CNS
  TGI: 0.726 µM
SK-MEL-2 melanoma
  TGI: 1.46 µM
SNB-19 CNS
  TGI: 1.42 µM
UO-31 renal
  TGI: 2.21 µM

## O=[N+]([O-])c1ccc(OCc2nnc(CCCCCCCCc3nnc(COc4ccc([N+](=O)[O-])cc4)o3)o2)cc1
786-0 renal
  TGI: > 100 µM
A498 renal
  TGI: > 100 µM
A549 NSCLC
  TGI: > 100 µM
ACHN renal
  TGI: > 100 µM
BT-549 breast
  TGI: > 100 µM
COLO 205 colon
  TGI: > 100 µM
DU-145 prostate
  TGI: > 100 µM
EKVX NSCLC
  TGI: > 100 µM
HCC-2998 colon
  TGI: > 100 µM
HCT-116 colon
  TGI: > 100 µM
HCT-15 colon
  TGI: > 100 µM
HOP-92 NSCLC
  TGI: > 100 µM
HT29 colon
  TGI: > 100 µM
IGROV1 ovarian
  TGI: > 100 µM
K-562 leukemia
  TGI: > 100 µM
KM12 colon
  TGI: > 100 µM
M14 melanoma
  TGI: > 100 µM
MALME-3M melanoma
  TGI: > 100 µM
MCF7 breast
  TGI: > 100 µM
MDA-MB-231 breast
  TGI: > 100 µM
MDA-MB-435
  TGI: > 100 µM
MOLT-4 leukemia
  TGI: > 100 µM
NCI-H226 lung
  TGI: > 100 µM
NCI-H23 lung
  TGI: > 100 µM
NCI-H460 lung
  TGI: > 100 µM
NCI-H522 lung
  TGI: > 100 µM
NCI/ADR-RES ovarian
  TGI: > 100 µM
OVCAR-3 ovarian
  TGI: > 100 µM
OVCAR-4 ovarian
  TGI: > 100 µM
OVCAR-5 ovarian
  TGI: > 100 µM
PC-3 prostate
  TGI: > 100 µM
RPMI-8226 leukemia
  TGI: > 100 µM
RXF 393 renal
  TGI: 83.3 µM
SF-268 CNS
  TGI: > 100 µM
SF-295 CNS
  TGI: > 100 µM
SK-MEL-2 melanoma
  TGI: > 100 µM
SK-MEL-28 melanoma
  TGI: > 100 µM
SK-MEL-5 melanoma
  TGI: > 100 µM
SK-OV-3 ovarian
  TGI: > 100 µM
SN12C renal
  TGI: > 100 µM
SNB-19 CNS
  TGI: > 100 µM
SNB-75 CNS
  TGI: > 100 µM
SW-620 colon
  TGI: > 100 µM
TK-10 renal
  TGI: > 100 µM
U251 CNS
  TGI: > 100 µM
UACC-257 melanoma
  TGI: > 100 µM
UACC-62 melanoma
  TGI: > 100 µM
UO-31 renal
  TGI: > 100 µM
